Assay results from patent publication US20200338084A1, “INHIBITORS OF LOW MOLECULAR WEIGHT PROTEIN TYROSINE PHOSPHATASE (LMPTP) AND USES THEREOF” (Sanford Burnham Prebys Medical Discovery Institute, priority 2018, published 2020).

Target: T1, human LMPTP-A (Homo sapiens, UniProt P24666)
T1 sequence (P24666 1-158): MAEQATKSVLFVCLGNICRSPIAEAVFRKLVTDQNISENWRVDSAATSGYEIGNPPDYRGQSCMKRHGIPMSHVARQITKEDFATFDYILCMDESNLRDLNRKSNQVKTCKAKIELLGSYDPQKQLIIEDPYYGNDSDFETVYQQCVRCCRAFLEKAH
Experiment: Enzyme Assay of Inhibition of LMPTP-A
Format: biochemical
Details: phosphatase assay, OMFP or pNPP substrate, 50 mM Bis-Tris pH 6.0, 37° C.
Experimental: Phosphatase assays were performed in buffer containing 50 mM Bis-Tris, pH 6.0, 1 mM DTT and 0.01% Triton X-100 at 37° C. For assays conducted with 3-O-methylfluorescein phosphate (OMFP) as substrate, fluorescence was monitored continuously at λex=485 and λem=525 nm. For assays conducted with para-nitrophenylphosphate (pNPP) as substrate, the reaction was stopped by addition of 2× reaction volume of 1 M NaOH, and absorbance was measured at 405 nm. IC50 values of compounds disclosed herein were determined from plots of inhibitor concentration versus percentage of enzyme activity. For inhibitor selectivity assays, each PTP was incubated with either 0.4 mM OMFP or 5 mM pNPP in the presence of 40 μM compound or DMSO. […] For the inhibitor reversibility assay, 50 nM human LMPTP-A was pre-incubated with 10 μM of compound disclosed herein or DMSO for 5 min. The enzyme was diluted 100× in phosphatase assay buffer containing 0.4 mM OMFP and fluorescence was measured at the indicated time points.

| IC50 [nM] | SMILES |
| --- | --- |
| ≥ 20000 | Nc1ncn(Cc2nnn[nH]2)c2ncnc1-2 [3-((1H-tetrazol-5-yl)methyl)-3H-purin-6-amine] |
| 1000 to 20000 | Cc1noc(C)c1Cn1cnc(N)c2ncnc1-2 [3-((3,5-dimethylisoxazol-4-yl)methyl)-3H-purin-6-amine] |
| 1000 to 20000 | CN(C)C(=O)c1cccc(Nc2ncn(Cc3c(Cl)cccc3Cl)c3ncnc2-3)c1 [3-((3-(2,6-dichlorobenzyl)-3H-purin-6-yl)amino)-N,N-dimethylbenzamide] |
| 1000 to 20000 | Nc1ncn(Cc2ccc(Cl)s2)c2ncnc1-2 [3-((5-chlorothiophen-2-yl)methyl)-3H-purin-6-amine] |
| 1000 to 20000 | N#Cc1cccc(Cn2cnc(N)c3ncnc2-3)c1 [3-((6-amino-3H-purin-3-yl)methyl)benzonitrile] |
| 1000 to 20000 | Nc1ncn(Cc2nc3ccccc3s2)c2ncnc1-2 [3-(benzo[d]thiazol-2-ylmethyl)-3H-purin-6-amine] |
| 1000 to 20000 | Nc1ncn(Cc2ccc3ccccc3n2)c2ncnc1-2 [3-(quinolin-2-ylmethyl)-3H-purin-6-amine] |
| ≥ 20000 | N#Cc1cccc(Nc2ncn(Cc3c(Cl)cccc3Cl)c3ncnc2-3)c1 [3-({3-[(2,6-Dichlorophenyl)methyl]-3-hydropurin-6-yl}amino)benzenecarbonitrile] |
| 1000 to 20000 | O=C(O)c1cccc(Nc2ncn(Cc3c(Cl)cccc3Cl)c3ncnc2-3)c1 [3-({3-[(2,6-Dichlorophenyl)methyl]-3-hydropurin-6-yl}amino)benzoic acid] |
| 1000 to 20000 | Oc1cccc(Nc2ncn(Cc3c(Cl)cccc3Cl)c3ncnc2-3)c1 [3-({3-[(2,6-Dichlorophenyl)methyl]-3-hydropurin-6-yl}amino)phenol] |
| ≤ 1000 | Nc1ncn(Cc2c(Cl)cccc2Cl)c2ncnc1-2 [3-<2,6-Dichloro-benzyl)-3H-purin-6-ylamine] |
| 1000 to 20000 | Nc1ncn(Cc2ccccn2)c2ncnc1-2 [3-Pyridin-2-ylmethyl-3H-purin-6-ylamine] |
| 1000 to 20000 | Nc1ncn(Cc2cccnc2)c2ncnc1-2 [3-Pyridin-3-ylmethyl-3H-purin-6-ylamine] |
| 1000 to 20000 | Nc1ncn(Cc2ccncc2)c2ncnc1-2 [3-Pyridin-4-ylmethyl-3H-purin-6-ylamine] |
| ≥ 20000 | Nc1ncn(Cc2cscn2)c2ncnc1-2 [3-Thiazol-4-ylmethyl-3H-purin-6-ylaniine] |
| ≥ 20000 | Nc1ncn(Cc2ccsc2)c2ncnc1-2 [3-Thiophen-3-ylmethyl-3H-purin-6-ylamine] |
| ≤ 1000 | Nc1ncn(Cc2c(Cl)ccnc2Cl)c2ncnc1-2 [3-[(2,4-dichloro-3-pyridyl)methyl]-3-hydropurine-6-ylamine] |
| ≤ 1000 | Nc1ncn(Cc2c(Cl)cccc2Cl)c2nc(-c3cncs3)nc1-2 [3-[(2,6-Dichlorophenyl)methyl]-8-(1,3-thiazol-5-yl)-3-hydropurine-6-ylamine] |
| ≤ 1000 | CN1CCC(c2nc3c(N)ncn(Cc4c(Cl)cccc4Cl)c-3n2)CC1 [3-[(2,6-Dichlorophenyl)methyl]-8-(1-methyl(4-piperidyl))-3-hydropurine-6-ylamine] |
| ≤ 1000 | Cn1cc(-c2nc3c(N)ncn(Cc4c(Cl)cccc4Cl)c-3n2)cn1 [3-[(2,6-Dichlorophenyl)methyl]-8-(1-methylpyrazol-4-yl)-3-hydropurine-6-ylamine] |
| ≤ 1000 | Cn1nccc1-c1nc2c(N)ncn(Cc3c(Cl)cccc3Cl)c-2n1 [3-[(2,6-Dichlorophenyl)methyl]-8-(1-methylpyrazol-5-yl)-3-hydropurine-6-ylamine] |
| ≤ 1000 | Nc1ncn(Cc2c(Cl)cccc2Cl)c2nc(-c3ccccc3Cl)nc1-2 [3-[(2,6-Dichlorophenyl)methyl]-8-(2-chlorophenyl)-3-hydropurine-6-ylamine] |
| ≤ 1000 | Nc1ncn(Cc2c(Cl)cccc2Cl)c2nc(-c3ccccc3F)nc1-2 [3-[(2,6-Dichlorophenyl)methyl]-8-(2-fluorophenyl)-3-hydropurine-6-ylamine] |
| ≤ 1000 | Nc1ncn(Cc2c(Cl)cccc2Cl)c2nc(-c3ccco3)nc1-2 [3-[(2,6-Dichlorophenyl)methyl]-8-(2-furyl)-3-hydropurine-6-ylamine] |
| ≤ 1000 | COc1ccccc1-c1nc2c(N)ncn(Cc3c(Cl)cccc3Cl)c-2n1 [3-[(2,6-Dichlorophenyl)methyl]-8-(2-methoxyphenyl)-3-hydropurine-6-ylamine] |

| IC50 [nM] | SMILES |
| --- | --- |
| ≤ 1000 | Cc1ccccc1-c1nc2c(N)ncn(Cc3c(Cl)cccc3Cl)c-2n1 [3-[(2,6-Dichlorophenyl)methyl]-8-(2-methylphenyl)-3-hydropurine-6-ylamine] |
| ≤ 1000 | Nc1ncn(Cc2c(Cl)cccc2Cl)c2nc(CCc3ccccc3)nc1-2 [3-[(2,6-Dichlorophenyl)methyl]-8-(2-phenylethyl)-3-hydropurine-6-ylamine] |
| ≤ 1000 | Nc1ncn(Cc2c(Cl)cccc2Cl)c2nc(-c3cccs3)nc1-2 [3-[(2,6-Dichlorophenyl)methyl]-8-(2-thienyl)-3-hydropurine-6-ylamine] |
| ≤ 1000 | Nc1ncn(Cc2c(Cl)cccc2Cl)c2nc(-c3cccc(Cl)c3)nc1-2 [3-[(2,6-Dichlorophenyl)methyl]-8-(3-chlorophenyl)-3-hydropurine-6-ylamine] |
| ≤ 1000 | Nc1ncn(Cc2c(Cl)cccc2Cl)c2nc(-c3cccc(F)c3)nc1-2 [3-[(2,6-Dichlorophenyl)methyl]-8-(3-fluorophenyl)-3-hydropurine-6-ylamine] |
| ≤ 1000 | Nc1ncn(Cc2c(Cl)cccc2Cl)c2nc(-c3ccoc3)nc1-2 [3-[(2,6-Dichlorophenyl)methyl]-8-(3-furyl)-3-hydropurine-6-ylamine] |
| ≤ 1000 | COc1cccc(-c2nc3c(N)ncn(Cc4c(Cl)cccc4Cl)c-3n2)c1 [3-[(2,6-Dichlorophenyl)methyl]-8-(3-methoxyphenyl)-3-hydropurine-6-ylamine] |
| ≤ 1000 | Cc1cccc(-c2nc3c(N)ncn(Cc4c(Cl)cccc4Cl)c-3n2)c1 [3-[(2,6-Dichlorophenyl)methyl]-8-(3-methylphenyl)-3-hydropurine-6-ylamine] |
| ≤ 1000 | Nc1ncn(Cc2c(Cl)cccc2Cl)c2nc(-c3cccnc3)nc1-2 [3-[(2,6-Dichlorophenyl)methyl]-8-(3-pyridyl)-3-hydropurine-6-ylamine] |
| ≤ 1000 | Nc1ncn(Cc2c(Cl)cccc2Cl)c2nc(-c3ccsc3)nc1-2 [3-[(2,6-Dichlorophenyl)methyl]-8-(3-thienyl)-3-hydropurine-6-ylamine] |
| ≤ 1000 | Nc1ncn(Cc2c(Cl)cccc2Cl)c2nc(-c3cnccc3Cl)nc1-2 [3-[(2,6-Dichlorophenyl)methyl]-8-(4-chloro(3-pyridyl))-3-hydropurine-6-ylamine] |
| ≤ 1000 | Nc1ncn(Cc2c(Cl)cccc2Cl)c2nc(-c3ccc(Cl)cc3)nc1-2 [3-[(2,6-Dichlorophenyl)methyl]-8-(4-chlorophenyl)-3-hydropurine-6-ylamine] |
| ≤ 1000 | Nc1ncn(Cc2c(Cl)cccc2Cl)c2nc(-c3ccc(F)cc3)nc1-2 [3-[(2,6-Dichlorophenyl)methyl]-8-(4-fluorophenyl)-3-hydropurine-6-ylamine] |
| ≤ 1000 | COc1ccncc1-c1nc2c(N)ncn(Cc3c(Cl)cccc3Cl)c-2n1 [3-[(2,6-Dichlorophenyl)methyl]-8-(4-methoxy(3-pyridyl))-3-hydropurine-6-ylamine] |
| ≤ 1000 | COc1ccc(-c2nc3c(N)ncn(Cc4c(Cl)cccc4Cl)c-3n2)cc1 [3-[(2,6-Dichlorophenyl)methyl]-8-(4-methoxyphenyl)-3-hydropurine-6-ylamine] |
| ≥ 20000 | Cc1csc(-c2nc3c(N)ncn(Cc4c(Cl)cccc4Cl)c-3n2)c1 [3-[(2,6-Dichlorophenyl)methyl]-8-(4-methyl(2-thienyl))-3-hydropurine-6-ylamine] |
| ≤ 1000 | Cc1ccncc1-c1nc2c(N)ncn(Cc3c(Cl)cccc3Cl)c-2n1 [3-[(2,6-Dichlorophenyl)methyl]-8-(4-methyl(3-pyridyl))-3-hydropurine-6-ylamine] |
| ≤ 1000 | Cc1ccc(-c2nc3c(N)ncn(Cc4c(Cl)cccc4Cl)c-3n2)cc1 [3-[(2,6-Dichlorophenyl)methyl]-8-(4-methylphenyl)-3-hydropurine-6-ylamine] |
| ≤ 1000 | Nc1ncn(Cc2c(Cl)cccc2Cl)c2nc(C3CCNCC3)nc1-2 [3-[(2,6-Dichlorophenyl)methyl]-8-(4-piperidyl)-3-hydropurine-6-ylamine] |
| ≤ 1000 | Nc1ncn(Cc2c(Cl)cccc2Cl)c2nc(-c3ccncc3)nc1-2 [3-[(2,6-Dichlorophenyl)methyl]-8-(4-pyridyl)-3-hydropurine-6-ylamine] |
| ≤ 1000 | Cc1ccc(-c2nc3c(N)ncn(Cc4c(Cl)cccc4Cl)c-3n2)s1 [3-[(2,6-Dichlorophenyl)methyl]-8-(5-methyl(2-thienyl))-3-hydropurine-6-ylamine] |
| ≤ 1000 | Nc1ncn(Cc2c(Cl)cccc2Cl)c2nc(-c3cccc(Cl)n3)nc1-2 [3-[(2,6-Dichlorophenyl)methyl]-8-(6-chloro(2-pyridyl))-3-hydropurine-6-ylamine] |
| ≤ 1000 | COc1ccc(-c2nc3c(N)ncn(Cc4c(Cl)cccc4Cl)c-3n2)cn1 [3-[(2,6-Dichlorophenyl)methyl]-8-(6-methoxy(3-pyridyl))-3-hydropurine-6-ylamine] |
| ≤ 1000 | Nc1ncn(Cc2c(Cl)cccc2Cl)c2nc(C(c3ccccc3)c3ccccc3)nc1-2 [3-[(2,6-Dichlorophenyl)methyl]-8-(diphenylmethyl)-3-hydropurine-6-ylamine] |
